# From patent US20260115261A1, “COLLAGEN PEPTIDE-BASED MEDICAMENT COMPOSITIONS AND USES THEREOF” (SUSTAIN HOLDINGS, LLC, priority 2023, published 2026)
# How the values were obtained:
# [1] = tested on: cerebrovasculature of ApoE−/− STZ mice; assay: Diabetic atherosclerosis mouse model (ApoE−/− + STZ + high fat diet), cerebrovascular immunohistochemistry; type: in vivo
# Description: Animals. All animal studies were conducted in accordance with the NIH guide for the care and use of laboratory animals and approved by the Vanderbilt University Institutional Animal Care and Use Committee. For the studies described, 12-week-old ApoE^−/− (#002052) or C57/B6J wildtype (WT) (#000664) mice were obtained from Jackson Laboratories. Mice were housed in a facility managed by Vanderbilt University Division of Animal Care with ad libitum access to water and standard diet followed by ad libitum access to 45% high fat diet (Research Diet Inc.; Catalog #D12451) starting at the correct study time point. Mice were subjected to 12-hr. light/dark cycle.
# Animal Model of Diabetic Atherosclerosis. A diabetic atherosclerosis mouse model was implemented by combining ApoE^−/− mice with a streptozocin STZ-induced diabetic phenotype. Prior to STZ injection and diet change, baseline fasting blood glucose measurements and weights were obtained. To induce hyperglycemia ApoE^−/− mice were injected with STZ (50 mg/Kg in 10 mM sodium citrate, pH4.5; Millipore Sigma Catalog #S0130) intraperitoneally for five consecutive days. For the duration of STZ injections, mice received drinking water supplemented with 10% sucrose. One week after the final STZ injection, blood glucose levels were measured to confirm hyperglycemia. Mice were fasted for 6 hours prior to glucose measurement and then anesthetized with 2.5% isoflurane. Tail snips were taken, and one drop of blood was placed on test strips to obtain readings. Tails were then stemmed of bleeding using a silver nitrate applicator (Avoca reference number #7482) before returning mice to their cages. Any mice not registering as hyperglycemic were removed from the study. Remaining mice were then switched to a 45% high fat diet (HFD) to accelerate atherosclerotic plaque formation. After 1 week on HFD, mice were randomly assigned to receive intravenous CMP (n=5) or PBS (1×PBS, n=4) once weekly for 12 weeks. Upon conclusion of the study, mice were anesthetized via intraperitoneal pentobarbital injection followed by transcardial perfusion of 1×PBS and 4% paraformaldehyde (PFA). One day prior to sacrifice, mice were injected via tail vein injection with Sulfo-NHS-Biotin in sterile 1×PBS (Thermo-Fisher; Catalog #21335).
# Intravenous Administration of CMPs. The CMP used in the present Example was a 21-aa single-strand peptide consisting of a 7-repeat sequence of a tripeptide of 4-fluoroproline (Flp), hydroxyproline (Hyp), and glycine (Gly), and abbreviated as (cis-Flp-Hyp-Gly)7 (SEQ ID NO:6). This CMP was manufactured using standard solid-phase peptide synthesis chemistry in limited quantity by Bachem, AG (Germany). CMP was dissolved in sterile 1×PBS at a concentration of […] and sterilized using a 0.22 µm filter (Millipore Sigma, Burlington, MA, USA). Mice were weighed and restrained in an apparatus designed for tail vein injection. Tails were heated to dilate the veins prior to weekly injection, and […] of CMP in sterile 1×PBS (vehicle) was injected to accommodate a final concentration in each animal of 0.1 mg/Kg. An additional batch of this CMP was produced with attachment of the TideFluor™ 2 moiety (AAT Bioquest, Sunnyvale, CA, United States) to the peptide as a fluorescent reporter. This labeled CMP was injected intravenously at 100 μM concentration (100 μL) to identify binding in WT vs. ApoE^−/−+STZ mice. CMP was injected 48 hours prior to sacrifice and again immediately before transcardial perfusion of 4% PFA. One day prior to euthanasia, tail veins were injected with Sulfo-NHS biotin to track vascular leakage. Sulfo-NHS Biotin (Thermo-Fisher; Catalog #21335) was dissolved in sterile 1×PBS (20 mg/mL) and sterilized through a […] filter. Mice were then restrained in tail vein apparatus and injected intravenously with 100 μL Sulfo-NHS biotin. […]
# optic nerve = assay: Optic nerve crush, axon repair after intravitreal injection; type: in vivo, mice; conditions: for greater abundance of CTB-containing axon segments vs vehicle: measurements above the median, p≤0.02
# Description: To further examine the effects of CMPs on nerve regeneration, optic nerve crush experiments were performed. This approach is a useful model of traumatic optic neuropathy and for assessing potential neuroreparative and neuroregenerative strategies (Cameron, E G et al., Bio-protocol 10(6) (Mar. 20, 2020), doi: 10.21769/BioProtoc.3559). Axon degeneration in this injury model also involves degradation of matrix collagen associated with robust tissue remodeling (Bernardo-Colon, A et al., Cell Death Dis. 9:1097 (2018); Sharma, T P et al., Mol. Neurodegener. 9:14 (2014)). Mice were subjected to […] nerve crush, and then three days later received an intravitreal injection of vehicle (DMSO) or of fluorescently tagged CMP 13A (SEQ ID NO:6). Optic nerves were longitudinally sectioned in the site of the injury two weeks following nerve crush, and sections were examined for axon length (via cholera toxin B labeling) and CMP localization (via fluorescence microscopy). Sections were also labeled with glial fibrillary acidic protein (GFAP) to localize astrocyte glia in the sections. […] Repaired axons were largely coincident with localized patches of CMP (FIG. 6C, arrows). Scale=200 μm (FIG. 6A) or 100 μm (FIGS. 6B,C).
# Next, we quantitated the number of CTB+ green axon segments at discrete distances distal from the crush site (towards the brain). […] Even so, in both cohorts, there were a number of samples with few, if any, axons distal from the crush site, leading to substantial variability (FIG. 7B, inset). To better estimate the magnitude of the effect due to CMP 13A compared to vehicle, we pooled the measurements above the median at each location into three bins: 50-100 μm, 200-300 μm, and 400 μm and further from the injury site. […] Intact axon segments in these nerves were also longer than those in nerves from vehicle-treated eyes. The mean length of intact axon segments in nerves from CMP 13A-treated eyes was 51% greater than that in the vehicle cohort: 122.6±5.5 vs. 81.1±8.3 μm (p<0.001; FIG. 7D). Similarly, the mean for the longest 25 segments in the CMP 13A nerves was nearly 80% greater than that for vehicle nerves: 228.1±12.9 vs. 127.8±10.5 μm (p<0.001; FIG. 7E).
# [2] = tested on: dorsal root ganglion (DRG) neurons; assay: DRG explant neurite outgrowth on MMP-1-digested collagen treated with CMP; type: cell-based, rat
# Description: Plates were then rinsed with culture medium, and DRG neuronal cells were plated uniformly on plates having one of three surface coating conditions: (1) intact collagen; (2) MMP1-digested collagen; and (3) MMP1-digested collagen+CMP. Plates were then incubated at 37° C. for 24 hours or 48 hours, and then examined for morphology and neurite outgrowth by inverted brightfield microscopy.
# To measure neurite outgrowth accurately, explants were visualized live using multifocal high-magnification phase contrast microscopy to optimize identification and measurement of the longest neurite (FIG. 2A, white arrow) and the size of the DRG explant growth field.
substance,measurement,setting,value
Flp-Hyp-Gly-Flp-Hyp-Gly-Flp-Hyp-Gly-Flp-Hyp-Gly-Flp-Hyp-Gly-Flp-Hyp-Gly-Flp-Hyp-Gly [CMP 13A],vascular leakage of biotin,"[1]; 3 months post-treatment, Sulfo-NHS biotin intravenous one day before euthanasia",not observed
same,distance from individual astrocytes to the nearest blood vessel,[1]; CA1 (p<0.0001) and DG (p=0.0004),closer to blood vessels than in PBS-treated mice
same,GFAP density vs PBS,[1]; CA1 (p=0.07) and DG (p=0.06),not significantly different
same,biotin intensity (secondary measure of vessel density) vs PBS,"[1]; CA1, DG and cortex",increased biotin labeling
same,CD31 intensity vs PBS,"[1]; CA1, cortex and DG (p=0.02, p<0.0001, p=0.01), 0.1 mg/Kg intravenous once weekly for 12 weeks",increased
same,increase of collagen IV intensity relative to PBS-treated controls,"[1]; CA1, p=0.01",170%
same,number of astrocyte soma vs PBS,"[1]; CA1, p=0.02",decreased
same,area of CD31-positive vessels vs PBS,"[1]; CA1 and cortex (p=0.001 and p<0.0001), (cis-Flp-Hyp-Gly)7 0.1 mg/Kg intravenous once weekly for 12 weeks",significant increase
same,CD31 intensity as a ratio of biotin intensity vs PBS,[1]; DG only (p=0.04),significantly increased
same,vessel (CD31) area vs control,"[1]; DG, 0.1 mg/Kg intravenous once weekly for 12 weeks",no significant difference
same,increase of collagen IV intensity relative to PBS-treated controls,"[1]; DG, p=0.04",52%
same,number of astrocyte soma vs PBS,"[1]; DG, p=0.31",not significantly different
same,vascular structure by biotin labeling,"[1]; all brain regions, vs shorter, more fragmented vessels in PBS-treated mice","longer, more complex vessels with increased branching"
same,increase of collagen IV intensity relative to PBS-treated controls,"[1]; cortex, p=0.01",175%
same,greater abundance of CTB-containing axon segments vs vehicle,optic nerve; 50-100 μm from injury site,29%
same,greater abundance of CTB-containing axon segments vs vehicle,optic nerve; 200-300 μm from injury site,39%
same,greater abundance of CTB-containing axon segments vs vehicle,optic nerve; 400 μm and further from injury site,96%
same,number of CTB+ axon segments at discrete distances distal from the crush site,"optic nerve; fluorescently tagged CMP 13A intravitreal 3 days after crush, two weeks after crush, vs vehicle (DMSO)",more axon segments than nerves from vehicle eyes at each location examined
same,"distance of CTB+ segments distal from the injury, some samples",optic nerve; two weeks after crush,≤ 1 mm
same,mean for the longest 25 segments,optic nerve; two weeks after crush,228.1±12.9 μm
same,mean length of intact axon segments,optic nerve; two weeks after crush,122.6±5.5 μm
same,"mean for the longest 25 segments, greater than vehicle nerves","optic nerve; two weeks after crush, p<0.001",~80%
same,"mean length of intact axon segments, greater than vehicle cohort","optic nerve; two weeks after crush, p<0.001",51%
Pro-Flp-Gly-Pro-Flp-Gly-Pro-Flp-Gly-Pro-Flp-Gly-Pro-Flp-Gly-Pro-Flp-Gly-Pro-Flp-Gly [CMP 09C],"longest neurite outgrowth, greater than intact collagen","[2]; 48 hours, MMP1-digested collagen + CMP 100 μM, normalized to intact collagen, p<0.036",21%
same,neurite outgrowth of DRG explants (phase contrast micrographs),"[2]; explants on damaged (MMP-1-digested) collagen treated with CMP 100 μM, 24 and 48 hours",improved outgrowth
